Results: US9247740B2, “Isoxazoline derivatives as insecticidal compounds” (Syngenta Participations AG, priority 2011, dated 2016)

Experiments:
Format in all cases: in vivo
[1] = test system: Tetranychus urticae (Two-Spotted Spider Mite); assay: Tetranychus urticae leaf disc spray test; settings: foliar, 192 h, 200 ppm spray on bean leaf discs, mixed ages, egg, larval and adult mortality 8 days later
Description: (§1) This Example illustrates the insecticidal and acaricidal properties of compounds of formula (I).

[2] = test system: Spodoptera littoralis (Egyptian Cotton Leafworm); assay: Spodoptera littoralis leaf disc spray test; settings: foliar, 72 h, 200 ppm spray on cotton leaf discs, mortality, feeding behavior, growth regulation 3 days after treatment
Description: This Example illustrates the insecticidal and acaricidal properties of compounds of formula (I). Tests were performed as follows:

[3] = test system: Plutella xylostella (Diamond Back Moth); assay: Plutella xylostella larval test on artificial diet; settings: 144 h, 200 ppm (concentration in well 18 ppm), L2 larvae, larval mortality and growth regulation after 6 days
Description: as §1

[4] = test system: Diabrotica balteata (Corn Root Worm); assay: Diabrotica balteata larval test on artificial diet; settings: 120 h, 200 ppm (concentration in well 18 ppm), L2 larvae, larval mortality and growth regulation after 5 days
Description: as §1

[5] = test system: Heliothis virescens (Tobacco Budworm); assay: Heliothis virescens egg test on artificial diet; settings: 96 h, 200 ppm (concentration in well 18 ppm), eggs 0-24 h old on artificial diet, egg mortality, larval mortality, growth regulation after 4 days
Description: as §1

[6] = test system: Thrips tabaci (Onion Thrips); assay: Thrips tabaci leaf disc spray test; settings: foliar, 168 h, 200 ppm spray on sunflower leaf discs, mixed ages, mortality after 7 days
Description: as §1

Measured: pest or weed control at 200 ppm

O=C(N[C@H]1C[S@@+]([O-])C1)c1ccc(C2=NO[C@@](c3cc(Cl)cc(Cl)c3)(C(F)(F)F)C2)cc1Cl [Compound C15, 2-chloro-4-[(5S)-5-(3,5-dichlorophenyl)-5-(trifluoromethyl)-4H-isoxazol-3-yl]-N-(1-oxidothietan-1-ium-3-yl)benzamide]
≥ 80%: all assays above
